Experiments:
[1] = tested on: type I collagen (Col 1) gene expression; assay: Evaluation I: TGF-β-induced gene expression of fibrosis-related factors in NHLF cells: Col 1; type: cell-based, human; settings: 25 μmol/L test substance 2 hours, then TGF-β 5 ng/mL 24 hours, n = 3
Method: (§1) NHLF cells were sown so as to make their amount 4×10^4 cells/well to each well of a 12-well plate and incubated to an extent of 80% confluent in a medium where fibroblast growth medium 2 supplement mix (FGM-2 SingleQuots, Lonza) was added to a fibroblast basal medium (FBM, Lonza). After that, incubation was conducted for 2 hours in a Dulbecco modified Eagle medium (DMEM) containing 25 μmol/L of a test substance and, after addition of […] growth factor (TGF)-β thereto so as to make its final concentration 5 ng/mL, incubation was carried out for 24 hours more.
(§2) QIAzol Lysis Reagent (QIAGEN) (1 mL) was added to the above to suspend, 200 μL of chloroform was added thereto followed by mixing and centrifugation (at 4° C. and 1500 rpm) was then conducted whereby the supernatant liquid was recovered. Total RNA was extracted and purified by treating the supernatant liquid with QIACube (QIAGEN) and RNeasy Micro Kit (QIAGEN). cDNA was prepared from the total RNA using Omniscript RT kit (QIAGEN) and Oligo(dT)12-18 Primer (Invitrogen).
(§3) Gene expression level of the fibrosis-related factors [connective tissue growth factor (CTGF), α-smooth muscle actin (SMA), fibronectin, endothelin and type I collagen (Col 1)] was measured by a conventional real time PCR method using a fluorescent dye SYBR GREEN I (Roche Diagnostics) by Light Cycler LC 480 (the same) using cDNA synthesized from the total RNA extracted in the above (2). A calibration curve was prepared by diluting the PCR product quantified by PicoGreen dsDNA Quantitation kit (Molecular probes) (a DNA quantitation kit) to an extent of 10^2˜10^7 copies/μL. From each of the resulting quantified values, copy numbers per 10000 copies of GAPDH gene being an internal standard were calculated.

[2] = tested on: rats suffering from degenerative intervertebral disk induced by nicotine; assay: Duration of walking time (rotor rod) in rats with degenerative intervertebral disk induced by nicotine; type: in vivo; settings: SD male rats, after 48 days from initiation of exposure to nicotine, 300 seconds maximum, per os once daily, n = 8, normal control 274.1, diseased control 147.7
Method: After 16 days from the purchase, SD male rats were organized into normal control group and nicotine group in terms of body weight, 50% reaction threshold value (measuring method will be mentioned later) and duration of walking time and, after 17 days from the purchase, exposure to nicotine was started for a nicotine group. Nicotine was prepared into 344.8 mg/mL using a physiological saline solution, filled into an osmotic pressure pump and retained under the skin of waist of rats. After 21 days from the retaining, an osmotic pressure pump into which a freshly-prepared nicotine solution was filled was retained under the skin of rats of five groups except the normal control group. Nicotine was prepared into […] using a physiological saline solution, filled into an osmotic pressure pump and retained under the skin of waist of the SD male rats.
After 13 days from exposure to nicotine, measurement of 50% reaction threshold value, duration of walking time and body weight were measured and a group organization was done into 6 groups of normal control group, diseased control group, compound 57-administered group, compound 58-administered group, compound 60-administered group and compound 68-administered group.
A test substance was suspended using 0.5 w/v % CMC and, together with stirring, 10 mL/kg of the suspension was repeatedly administered per os once daily after 14 to 52 or 53 days from the initiation of exposure to nicotine using an oral sonde for rats. To the normal control group and the diseased control group, 0.5 w/v % CMC was repeatedly administered per os in the same administration schedule and administration method.
Before the exposure to nicotine and after 48 days from the initiation of the exposure to nicotine, duration of waling time of rats was measured using a rotor rod for both rats and mice. A rotating speed was adjusted in such a manner that, when rotation was started in constant acceleration from the state where a rotor stopped, it reached 15 rotations per minute after 300 seconds. A rat was placed on a rotor which was in a stopped state, then the rotor was rotated, the time until the rat dropped was measured (300 seconds in maximum) and a mean value of three runs was determined.

IL-6 gene expression = assay: Suppression of LPS-induced gene expression of inflammation-related factors in THP-1 cells (real time PCR): IL-6; type: cell-based, human; settings: PMA-differentiated THP-1 cells; test substance 12.5 μmol/mL 2 hours, then LPS 10 mg/mL 3 hours; n = 3
Method: THP-1 cells were subjected to induction of differentiation for 72 hours with PMA (phorbol 12-myristate 13-acetate; 100 nM/L) and then the THP-1 cells (5×10^5 cells/mL) were incubated for 24 hours in a RPMI 1640+10% FCS culture solution in a 24-well plate. After that, a test substance was added so as to make the final concentration 12.5 μmol/mL followed by conducting the preincubation for 2 hours, a lipopolysaccharide (LPS) was then added thereto so as to make the final concentration 10 mg/mL and, after 3 hours, the cells were recovered.
as §2, with “was” for “was then”
as §3, with “inflammation-related” for “fibrosis-related”, “[IL-1β, IL-6” for “[connective tissue growth factor (CTGF), α-smooth muscle actin (SMA), fibronectin, endothelin”, “monocyte chemotactic protein (MCP)-1]” for “type I collagen (Col 1)]”

NF-κB = assay: Suppressive action to NF-κB activation (luciferase reporter, HEK293T cells, TNF-α); type: cell-based, human; settings: HEK293T cells with NF-κB reporter; test substance 25 μml/mL 1 hour, then TNF-α 10 ng/mL 5 hours; stimulated TNF-α = 100
Method: A preparation solution containing pGL4.32 [luc2P/NF-κB-RE/Hygrol] (Promega) which is an NF-κB reporter vector, pGL4.74 [hRluc/TK] (Promega) which is a control vector and Lipofectamine LTX (Life Technologies) which is a gene transfer agent was added to human embryo kidney cells (HEK293T cells) sown onto a […] whereupon there were prepared the cells which transiently express a reporter protein.
After 24 hours from the gene transfer, transient expression cells were peeled off by treating with trypsin, sown on a poly-lysine coated white 96-well plate and incubated for one night. The test substance was added to as to make its final concentration 25 μml/mL and, after pre-incubating for 1 hour, TNF-α was added thereto so as to make its final concentration 10 ng/mL followed by incubating for 5 hours more. The cells were dissolved and the activities of a firefly luciferase and a renilla luciferase were measured. Rate of the luminescent intensity by addition of each drug to the luminescent intensity by stimulation with TNF-α were calculated.

[3] = tested on: connective tissue growth factor (CTGF) gene expression; assay: Evaluation I: TGF-β-induced gene expression of fibrosis-related factors in NHLF cells: CTGF; type: cell-based, human; settings: 25 μmol/L test substance 2 hours, then TGF-β 5 ng/mL 24 hours, n = 3
Method: as §1, §2, §3

Q: What does the source list for `O=c1oc2c(OS(=O)(=O)c3cccc(Br)c3)cccc2cc1NS(=O)(=O)c1cccc(C(F)(F)F)c1` [Compound 60, 2-Oxo-3-[[3-(trifluoromethyl)phenyl]sulfonylamino]-chromen-8-yl 3-bromobenzenesulfonate]?
A: Copy Numbers per 10000 Copies of GAPDH Col 1 [1]: 11388.1 copies per 10000 copies of GAP; Duration of Walking Time [2]: 208.4 s; Copy Numbers per 10000 Copies of GAPDH IL-6 (IL-6 gene expression): 275.2 copies per 10000 copies of GAP; Luminescent Intensity to Stimulated TNF-α (%) (NF-κB): 15.7%; Copy Numbers per 10000 Copies of GAPDH CTGF [3]: 13992.0 copies per 10000 copies of GAP

Q: How did the “Copy Numbers per 10000 Copies of GAPDH Col 1” value [1] turn out when `O=c1oc2c(OS(=O)(=O)c3ccc(C(F)(F)F)cc3)cccc2cc1NS(=O)(=O)c1cccc(C(F)(F)F)c1` [Compound 57, 2-Oxo-3-[[3-(trifluoromethyl)phenyl]sulfonylamino]-chromen-8-yl 4-(trifluoromethyl)benzenesulfonate] was run?
A: 9715.8 copies per 10000 copies of GAP

Q: And the “Duration of Walking Time” value [2]?
A: 187.3 s

Q: And the “Copy Numbers per 10000 Copies of GAPDH IL-6” value (IL-6 gene expression)?
A: 49.0 copies per 10000 copies of GAP

Q: What about the “Luminescent Intensity to Stimulated TNF-α (%)” value (NF-κB) of the same compound?
A: 7.5%

Q: And the “Copy Numbers per 10000 Copies of GAPDH CTGF” value [3]?
A: 8963.4 copies per 10000 copies of GAP

Q: `O=c1oc2c(OS(=O)(=O)c3ccc(C(F)(F)F)cc3)cccc2cc1NS(=O)(=O)c1cccc(Br)c1` [Compound 58, 3-[(3-Bromophenyl)sulfonylamino]-2-oxochromen-8-yl 4-(trifluoromethyl)benzenesulfonate] was tested. Which “Copy Numbers per 10000 Copies of GAPDH Col 1” value [1] did it give?
A: 5901.0 copies per 10000 copies of GAP

Q: What about the “Duration of Walking Time” value [2] of the same compound?
A: 210.9 s

Q: And the “Copy Numbers per 10000 Copies of GAPDH IL-6” value (IL-6 gene expression)?
A: 93.2 copies per 10000 copies of GAP

Q: What about the “Luminescent Intensity to Stimulated TNF-α (%)” value (NF-κB) of the same compound?
A: 14.5%

Q: And the “Copy Numbers per 10000 Copies of GAPDH CTGF” value [3]?
A: 5020.5 copies per 10000 copies of GAP

Q: Which results are given for `O=c1oc2c(OS(=O)(=O)c3cccc(C(F)(F)F)c3)cccc2cc1NS(=O)(=O)c1ccc(C(F)(F)F)cc1` [Compound 68, 2-Oxo-3-[[4-(trifluoromethyl)phenyl]sulfonylamino]-chromen-8-yl 3-(trifluoromethyl)benzenesulfonate]?
A: Copy Numbers per 10000 Copies of GAPDH Col 1 [1]: 8905.8 copies per 10000 copies of GAP; Duration of Walking Time [2]: 189.2 s; Copy Numbers per 10000 Copies of GAPDH IL-6 (IL-6 gene expression): 95.7 copies per 10000 copies of GAP; Luminescent Intensity to Stimulated TNF-α (%) (NF-κB): 16.1%; Copy Numbers per 10000 Copies of GAPDH CTGF [3]: 10441.5 copies per 10000 copies of GAP

Reference: US10004716B2, “Therapeutic/ preventive agent containing coumarin derivative as active ingredient” (NIPPON ZOKI PHARMACEUTICAL CO., LTD., priority 2014, dated 2018)
